How the values were obtained:
[1] = molecular target: T1, recombinant human glucokinase (beta cell isoform, His-tagged) (Homo sapiens, UniProt P35557); test: Assay 1: activator potency and maximum activation at 5 mM glucose (coupled PK/LDH, NADH depletion, A340); assay type: biochemical; details: for Emax: % Maximum Activation=(Va/Vo−1)×100; for EC50: glucokinase activation, pH 7.1, room temperature
T1 construct: Full-length glucokinase (beta cell isoform) was His-tagged at the N-terminus; His tag (N); made in house; host or cells: E. coli BL21(DE3), pBCGK vector
T1 sequence (P35557 1-465): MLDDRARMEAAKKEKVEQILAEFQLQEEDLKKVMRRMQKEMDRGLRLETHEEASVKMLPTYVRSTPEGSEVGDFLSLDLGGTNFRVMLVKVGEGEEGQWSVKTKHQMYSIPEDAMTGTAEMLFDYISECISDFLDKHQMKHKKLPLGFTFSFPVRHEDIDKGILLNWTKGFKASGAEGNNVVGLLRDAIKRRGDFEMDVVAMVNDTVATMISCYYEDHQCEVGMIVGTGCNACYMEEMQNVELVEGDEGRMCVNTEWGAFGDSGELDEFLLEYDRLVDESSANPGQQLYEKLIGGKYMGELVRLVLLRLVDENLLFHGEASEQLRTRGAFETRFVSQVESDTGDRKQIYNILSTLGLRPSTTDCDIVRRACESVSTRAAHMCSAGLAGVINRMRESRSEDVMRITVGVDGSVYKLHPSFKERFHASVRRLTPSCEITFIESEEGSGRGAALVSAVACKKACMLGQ
Description: (§1) Representative compounds of this invention were evaluated in biochemical assays (Assay 1 or Assay 2) to characterize their glucokinase activation properties. The recombinant human glucokinase protein utilized in both assays was prepared and purified as described below. • Beta Cell Glucokinase His-Tag Growth and Induction Conditions: BL21(DE3) cells (Invitrogen Corporation, Carlsbad, Calif.) containing pBCGK (C or N His) vector were grown at 37° C. (in 2XYT) until the OD600 was between 0.6-1.0. Expression was induced by addition of isopropylthiogalactoside to a final concentration of 0.1-0.2 mM to the cells which were then incubated overnight at 23° C. The next day, cells were harvested via centrifugation at 5000 rpm for 15 minutes at 4° C. The cell pellet was stored at −80° C. for future purification. • Beta Cell Glucokinase His-Tag Purification Conditions: A Ni-NTA (Quigan, Germantown, Md.) column (15-50 mL) was used for separation. Two buffers were prepared, 1) a lysis/nickel equilibration and wash buffer and 2) a nickel elution buffer. The lysis/equilibration/wash buffer was prepared as such: 25 mM HEPES buffer at pH 7.5, 250 mM NaCl, 20 mM imidazole, and 14 mM […] as final concentrations. The elution buffer was prepared as such: 25 mM HEPES at pH 7.5, 250 mM NaCl, 400 mM imidazole, and 14 mM β-mercaptoethanol as final concentrations. The buffers were each filtered with a 0.22 μm filter prior to use. The cell pellet (1 L culture) was resuspended in 300 mL of the lysis/equilibration buffer. The cells were then lysed (3 times) with a Microfluidics Model 110Y microfluidizer (Microfluidics Corporation, Newton, Mass.). The slurry was centrifuged with a Beckman Coulter Model LE-80K ultracentrifuge (Beckman Coulter, Fullerton, Calif.) at 40,000 rpm for 45 minutes at 4° C. The supernatant was transferred to a chilled flask. A volume of 20 μl was saved for gel analysis. A Pharmacia AKTA (GMI, Inc., Ramsey, Minn.) purification system was used for separation. The prime lines were purged with lysis/equilibration buffer. The Ni-NTA column was equilibrated with 200 mL of the lysis/equilibration buffer at a flow rate of 5 mL/minute. The supernantant was loaded over the column at 4 mL/minute and the flow-through was collected in a flask. The unbound proteins were washed with lysis/equilibration buffer at a flow rate of 5 mL/minute until the ultraviolet reaches baseline. The protein was then eluted from the column with the imidazole elution buffer via imidazole gradient 20 mM to 400 mM over 320 mL. The column was then stripped of any additional protein with 80 mL of the elution buffer. The elution fractions were each 8 mL, for a total yield of 50 samples. Fractions were analyzed by sodium dodecyl sulfate polyacrylamide (SDS-PAGE) and the fractions containing protein of interest were pooled and concentrated to 10 mL using ultrafiltration cell with a 10,000 molecular weight cut-off (MWCO) Millipore membrane (Sigma-Aldrich, St. Louis, Mo.) under nitrogen gas (60 psi). Protein was further purified by size exclusion chromatography (SEC) using a […] (320 mL) (Amersham Pharmacia, Uppsala, Sweden). SEC was equilibrated with 450 mL sizing buffer containing 25 mM HEPES pH 7.0, 50 mM NaCl, and 5 mM dithiothreitol. Concentrated protein was then loaded over SEC and elution with 400 mL sizing buffer was performed overnight at 0.5 mL/minute. The elution fractions were 5 mL each. The fractions were analyzed by SDS-PAGE and protein containing fractions were pooled. Concentration was measured using Bradford Assay/BSA Standard. Purified protein was stored in small aliquots at −80° C. Assay 1: Evaluating Activator Potency and Maximum Activation at 5 mM Glucose
Full-length glucokinase (beta cell isoform) was His-tagged at the N-terminus and purified by a Ni column followed by size exclusion chromatography as described above. […]

[2] = molecular target: T2, recombinant human glucokinase (Homo sapiens, UniProt P35557); test: Assay 2: activator potency in a matrix assay at multiple glucose concentrations (22 compound x 16 glucose concentrations); assay type: biochemical; details: concentration of compound affording a 50% reduction in the enzyme's Km for glucose, read-out: Intrinsic EC50
T2 construct: His tag; made in house; host or cells: E. coli BL21(DE3), pBCGK vector
T2 sequence (P35557 1-465): T1 sequence (P35557 1-465)
Description: as §1, with “Concentrated protein was then loaded over SEC and elution with 400 mL sizing buffer was performed overnight at 0.5 mL/minute. The elution fractions were 5 mL each.” left out, “Purified protein was stored in small aliquots at −80° C. Assay 1: Evaluating Activator Potency and Maximum Activation at 5 mM Glucose” left out

Row | SMILES | Emax [1] [%] | EC50 [1] [µM] | EC50 [2] [nM]
1 | Cc1ccc(NC(=O)[C@H](CC2CCOCC2)n2cc(C(F)(F)F)ncc2=O)nc1 [Example 1, (S)-N-(5-methylpyridin-2-yl)-2-(2-oxo-5-(trifluoromethyl)pyrazin-1(2H)-yl)-3-(tetrahydro-2H-pyran-4-yl)propanamide] | 100 | 64 | –
2 | O=C(Nc1cnccn1)[C@H](CC1CCCC1)n1cc(C(F)(F)F)ncc1=O [Example 3, (S)-3-cyclopentyl-2-(2-oxo-5-(trifluoromethyl)pyrazin-1(2H)-yl)-N-(pyrazin-2-yl)propanamide] | 139 to 143 | 5.6 to 7.1 | –
3 | O=C(O)c1ccc(NC(=O)[C@H](CC2CCOCC2)n2cc(C(F)(F)F)ncc2=O)nc1 [Example 6, (S)-6-(2-(2-oxo-5-(trifluoromethyl)pyrazin-1(2H)-yl)-3-(tetrahydro-2H-pyran-4-yl)propanamido)nicotinic acid] | – | – | 8900
4 | CC(C)C[C@@H](C(=O)Nc1ccc(C(=O)O)cn1)n1cc(C(F)(F)F)ncc1=O [Example 7, (S)-6-(4-methyl-2-(2-oxo-5-(trifluoromethyl)pyrazin-1(2H)-yl)pentanamido)nicotinic acid] | – | – | 3300

Continued, values first:

Row | Emax [1] [%] | EC50 [1] [µM] | EC50 [2] [nM] | SMILES
5 | 117 | 0.453 | – | O=C(O)c1ccc(NC(=O)[C@H](CC2CCCC2)n2cc(C(F)(F)F)ncc2=O)nc1 [Example 2, (S)-6-(3-cyclopentyl-2-(2-oxo-5-(trifluoromethyl)pyrazin-1(2H)-yl)propanamido)nicotinic acid]
6 | 99 to 100 | 0.27 to 0.37 | – | Cc1ccc(NC(=O)[C@H](CC2CCCC2)n2cc(C(F)(F)F)ncc2=O)nc1 [Example 4, (S)-3-cyclopentyl-N-(5-methylpyridin-2-yl)-2-(2-oxo-5-(trifluoromethyl)pyrazin-1(2H)-yl)propanamide]
7 | – | – | 220 to 310 | O=C(O)c1ccc(NC(=O)[C@H](CC2CCCCC2)n2cc(C(F)(F)F)ncc2=O)nc1 [Example 5, (S)-6-(3-cyclohexyl-2-(2-oxo-5-(trifluoromethyl)pyrazin-1(2H)-yl)propanamido)nicotinic acid]
8 | – | – | 2300 | O=C(O)Cc1ccc(NC(=O)[C@H](CC2CCCC2)n2cc(C(F)(F)F)ncc2=O)nc1 [Example 8, (S)-2-(6-(3-cyclopentyl-2-(2-oxo-5-(trifluoromethyl)pyrazin-1(2H)-yl)propanamido)pyridin-3-yl)acetic acid]
9 | – | – | 1250 | O=C(O)c1ccc(NC(=O)[C@H](CC2CCC2)n2cc(C(F)(F)F)ncc2=O)nc1 [Example 9, (S)-6-(3-cyclobutyl-2-(2-oxo-5-(trifluoromethyl)pyrazin-1(2H)-yl)propanamido)nicotinic acid]

— patent publication US8071606B2, “Substituted pyrazinone amides useful for activation of glucokinase” (Pfizer Inc., priority 2009, dated 2011)
